The assay concerns the target T1, ΔF508-CFTR (Homo sapiens, UniProt P13569, DEL508-508).
T1 construct: host or cells: CFBE41o-, doxycycline-inducible
The assay is described as follows: CFTR cell surface levels using HRP-tagged ΔF508-CFTR expressing CFBE cells, in the presence of a co-corrector. It is filed as cell-based. The source says: Measuring CFTR Cell Surface Levels Using HRP-Tagged ΔF508-CFTR Expressing CFBE Cells
The HRP-tagged ΔF508-CFTR cell assay measures the expression of CFTR-ΔF508 at the plasma membrane. CFTR-ΔF508 has a folding defect leading to absence of protein at the plasma membrane. This assay is used to evaluate the capacity of compounds to increase the expression of CFTR-ΔF508 at the plasma membrane. The CFTR-ΔF508 is tagged with HRP (horse radish peroxidase enzyme) within the ECL4 (Extracellular loop 4) of CFTR (Phuan, P.-W. et al. Synergy-based small-molecule screen using a human lung epithelial cell line yields ΔF508-CFTR correctors that augment VX-809 maximal efficacy. Mol. Pharmacol. 86, 42-51 (2014)). When HRP-tagged ΔF508-CFTR is present at the plasma membrane, the HRP enzyme activity can be measured. The amount of CFTR-ΔF508 that can be rescued to the plasma membrane is correlated with the amount of functional enzyme that can be measured.
There are several ways to measure the capacity of compounds to rescue CFTR-ΔF508 to the plasma membrane; either compounds are evaluated on their own and the impact on plasma membrane levels is measured or compounds are evaluated in combination with a co-corrector, i.e. a compound that rescues CFTR-ΔF508 to the plasma membrane but rescue can be enhanced by addition of compounds due to a complementary mode of action.
Activity of Compounds in Combination with Co-Corrector:
For this purpose doxycycline-inducible ΔF508-CFTR-HRP expressing CFBE4lo− cells (obtained from Gergely Lukacs, McGill University) were maintained in MEM (Minimum Essential Medium, Gibco; 31095) supplemented with 10% fetal bovine serum (Hyclone; SV30160.03) under puromycin (3 μg/mL) and G418 selection (0.2 mg/mL). For compound testing, cells were seeded at 4000 cells/well in white 384-well plates (Greiner; 781080) in 50 μL of medium containing 0.5 μg/mL doxycycline and incubated for 68 hours at 37° C., 5% CO2. On day four, 10 μL of test compounds diluted in PBS (phosphate buffered saline) were added to the plates at a final DMSO concentration of 0.1%. In order to measure compound synergy with a co-corrector, 3 μM co-corrector (3-[(2R,4R)-4-({[1-(2,2-difluoro-1,3-benzodioxol-5-yl)cyclopropyl]carbonyl}amino)-7-methoxy-3,4-dihydro-2H-chromen-2-yl]benzoic acid) was added along with test compounds. All compound plates contained negative controls (DMSO) and positive controls (3 μM co-corrector). Cell plates were incubated at 33° C., 5% CO2 for 20 hours. On day five, the cells were washed five times with phosphate-buffered saline, and HRP activity was assayed by the addition of 50 μL/well of HRP substrate (SuperSignal™ West Pico Chemiluminescent Substrate, Thermo Scientific; 34080). After incubation for 15 minutes in the dark, the chemiluminescence was measured using a plate reader (EnVision®, Perkin Elmer). Raw data were normalized to percentage activity values using the equation: 100×(Sample−Negative control)/(Positive control−Negative Control).

The mark [1] stands for this setting: HRP-tagged ΔF508-CFTR CFBE cells, in the presence of 3 μM co-corrector.
Setting [2] is: HRP-tagged ΔF508-CFTR CFBE cells, in the presence of 3 μM co-corrector, read-out: EC50.

Structures are written as SMILES. Where two headings read alike, the source gives them in different places.

The term EC50 denotes the concentration at which the effect is half-maximal.

T1 sequence (P13569 with tags, fused parts or gaps DEL508-508): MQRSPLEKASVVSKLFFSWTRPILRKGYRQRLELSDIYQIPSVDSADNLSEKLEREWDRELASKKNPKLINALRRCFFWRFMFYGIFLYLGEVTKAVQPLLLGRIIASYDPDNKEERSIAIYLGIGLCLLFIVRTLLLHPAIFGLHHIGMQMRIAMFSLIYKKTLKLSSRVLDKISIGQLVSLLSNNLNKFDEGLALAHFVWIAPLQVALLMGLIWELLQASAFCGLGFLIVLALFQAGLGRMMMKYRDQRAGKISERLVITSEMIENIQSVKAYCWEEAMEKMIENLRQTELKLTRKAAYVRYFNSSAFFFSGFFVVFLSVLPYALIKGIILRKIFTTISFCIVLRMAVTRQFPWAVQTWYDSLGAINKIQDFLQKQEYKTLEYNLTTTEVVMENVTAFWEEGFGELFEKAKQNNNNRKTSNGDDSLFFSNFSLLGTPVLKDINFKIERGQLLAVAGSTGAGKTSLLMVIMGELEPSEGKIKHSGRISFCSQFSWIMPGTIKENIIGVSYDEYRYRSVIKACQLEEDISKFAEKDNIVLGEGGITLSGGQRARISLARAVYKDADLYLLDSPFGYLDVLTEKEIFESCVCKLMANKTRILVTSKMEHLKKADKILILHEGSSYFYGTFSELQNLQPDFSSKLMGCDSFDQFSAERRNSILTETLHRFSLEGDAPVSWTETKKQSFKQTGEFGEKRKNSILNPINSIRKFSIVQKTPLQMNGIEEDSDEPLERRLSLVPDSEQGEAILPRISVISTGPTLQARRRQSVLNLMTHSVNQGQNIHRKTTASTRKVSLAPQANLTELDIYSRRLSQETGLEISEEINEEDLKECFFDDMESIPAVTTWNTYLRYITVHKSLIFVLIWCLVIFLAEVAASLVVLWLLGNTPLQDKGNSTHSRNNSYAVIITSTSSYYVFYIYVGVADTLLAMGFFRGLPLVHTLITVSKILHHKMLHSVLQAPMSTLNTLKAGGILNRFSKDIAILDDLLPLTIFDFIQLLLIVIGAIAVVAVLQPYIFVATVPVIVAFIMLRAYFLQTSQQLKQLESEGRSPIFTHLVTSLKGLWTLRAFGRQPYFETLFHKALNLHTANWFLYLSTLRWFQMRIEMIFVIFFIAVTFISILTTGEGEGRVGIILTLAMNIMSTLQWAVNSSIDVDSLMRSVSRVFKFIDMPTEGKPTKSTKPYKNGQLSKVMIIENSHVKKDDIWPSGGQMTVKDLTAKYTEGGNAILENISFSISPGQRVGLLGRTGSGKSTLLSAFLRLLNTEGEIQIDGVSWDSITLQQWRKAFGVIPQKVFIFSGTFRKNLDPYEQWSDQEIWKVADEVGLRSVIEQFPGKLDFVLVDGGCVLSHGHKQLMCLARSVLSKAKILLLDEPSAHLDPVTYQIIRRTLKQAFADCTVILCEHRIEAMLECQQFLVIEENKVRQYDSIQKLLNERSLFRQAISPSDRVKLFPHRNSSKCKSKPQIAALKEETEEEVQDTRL

For the molecule `COCCOCC1(F)CCN(c2cc(C(=O)NS(C)(=O)=O)nc3c2c(C(C)C)nn3-c2ccc(F)cc2)CC1` [Compound 343, 4-{4-fluoro-4-[(2-methoxyethoxy)methyl]piperidin-1-yl}-1-(4-fluorophenyl)-N-(methanesulfonyl)-3-(propan-2-yl)-1H-pyrazolo[3,4-b]pyridine-6-carboxamide], the “% Activation” value under setting [1] is on record as 356.9%. The EC50 under setting [2] came out at 566 nM.
In the case of `CC(C)c1nn(-c2ccc(F)cc2)c2nc(C(=O)NS(C)(=O)=O)cc(N3CC[C@@H](O)[C@H](F)C3)c12` [Compound 344, 4-[(3R,4R)-3-fluoro-4-hydroxypiperidin-1-yl]-1-(4-fluorophenyl)-N-(methanesulfonyl)-3-(propan-2-yl)-1H-pyrazolo[3,4-b]pyridine-6-carboxamide], the “% Activation” value under setting [1] stood at 374.5%. Under setting [2], the EC50 was 1060 nM.
For `COCC1(F)CCN(c2cc(C(=O)NS(C)(=O)=O)nc3c2c(C(C)C)nn3-c2ccc(F)cc2)CC1` [Compound 345, 4-[4-fluoro-4-(methoxymethyl)piperidin-1-yl]-1-(4-fluorophenyl)-N-(methanesulfonyl)-3-(propan-2-yl)-1H-pyrazolo[3,4-b]pyridine-6-carboxamide], under setting [1], the “% Activation” value was determined as 301.1%. In addition, the EC50 under setting [2] is 223 nM.
On the same counts, the results for `O=C(NS(=O)(=O)N1CCOCC1)c1cc(OCC2CCOCC2)c2c(C3CCC3)nn(-c3ccccc3)c2n1` [Compound 358, 3-cyclobutyl-N-(morpholine-4-sulfonyl)-4-[(oxan-4-yl)methoxy]-1-phenyl-1H-pyrazolo[3,4-b]pyridine-6-carboxamide] are 242.33% and 89.9 nM.
For `O=C(NS(=O)(=O)N1CCC(N2CCOCC2)CC1)c1cc(OCC2CCOCC2)c2c(C3CCC3)nn(-c3ccccc3)c2n1` [Compound 359, 3-cyclobutyl-N-[4-(morpholin-4-yl)piperidine-1-sulfonyl]-4-[(oxan-4-yl)methoxy]-1-phenyl-1H-pyrazolo[3,4-b]pyridine-6-carboxamide] the same measures were 236.25% and 299 nM.
For `CN1CCN(C(=O)C2CCN(S(=O)(=O)NC(=O)c3cc(OCC4CCOCC4)c4c(C5CCC5)nn(-c5ccccc5)c4n3)CC2)CC1` [Compound 360, 3-cyclobutyl-N-[4-(4-methylpiperazine-1-carbonyl)piperidine-1-sulfonyl]-4-[(oxan-4-yl)methoxy]-1-phenyl-1H-pyrazolo[3,4-b]pyridine-6-carboxamide] the same measures were 182.8% and 101 nM.
On to `CN1CCN(S(=O)(=O)NC(=O)c2cc(OCC3CCOCC3)c3c(C4CCC4)nn(-c4ccccc4)c3n2)CC1` [Compound 361, 3-cyclobutyl-N-(4-methylpiperazine-1-sulfonyl)-4-[(oxan-4-yl)methoxy]-1-phenyl-1H-pyrazolo[3,4-b]pyridine-6-carboxamide], for which the “% Activation” value under setting [1] was 204.1%. Further, the EC50 under setting [2] came to 181 nM.
For `CC(C)(C)S(=O)(=O)NC(=O)c1cc(OCC2CCOCC2)c2c(C3CCC3)nn(-c3ccccc3)c2n1` [Compound 362, 3-cyclobutyl-N-(2-methylpropane-2-sulfonyl)-4-[(oxan-4-yl)methoxy]-1-phenyl-1H-pyrazolo[3,4-b]pyridine-6-carboxamide] the same measures were 195.75% and 414 nM.
On the same counts, the results for `C#CCCS(=O)(=O)NC(=O)c1cc(-c2ccc(N=[N+]=[N-])cc2)c2c(C(C)C)nn(-c3cccc(N(C)C)c3)c2n1` [Compound 363, 4-(4-azidophenyl)-N-(but-3-yne-1-sulfonyl)-1-[3-(dimethylamino)phenyl]-3-(propan-2-yl)-1H-pyrazolo[3,4-b]pyridine-6-carboxamide] are 415.8% and 116 nM.
On the same counts, the results for `COCC1CCN(c2cc(C(=O)NS(=O)(=O)CC#N)nc3c2c(C2CCC2)nn3-c2ccccc2)CC1` [Compound 364, N-(cyanomethanesulfonyl)-3-cyclobutyl-4-[4-(methoxymethyl)piperidin-1-yl]-1-phenyl-1H-pyrazolo[3,4-b]pyridine-6-carboxamide] are 575% and 553 nM.
On to `COCC1CCN(c2cc(C(=O)NS(=O)(=O)CCn3cccn3)nc3c2c(C2CCC2)nn3-c2ccccc2)CC1` [Compound 372, 3-cyclobutyl-4-[4-(methoxymethyl)piperidin-1-yl]-1-phenyl-N-[2-(1H-pyrazol-1-yl)ethanesulfonyl]-1H-pyrazolo[3,4-b]pyridine-6-carboxamide], for which the “% Activation” value under setting [1] stood at 615.7%. Also, the EC50 under setting [2] is 2560 nM.
Consider `CC(C)c1nn(-c2ccc(F)cc2)c2nc(C(=O)NS(C)(=O)=O)cc(N3CCC(N4CCOCC4)CC3)c12` [Compound 411, 1-(4-fluorophenyl)-N-(methanesulfonyl)-4-[4-(morpholin-4-yl)piperidin-1-yl]-3-(propan-2-yl)-1H-pyrazolo[3,4-b]pyridine-6-carboxamide], for which the EC50 stood at 478 nM. Moreover, the “% Activation” value under setting [1] came to 505%.
For `CC(C)c1nn(-c2ccc(F)cc2)c2nc(C(=O)NS(=O)(=O)N(C)C)cc(N3CCC(N4CCOCC4)CC3)c12` [Compound 412, N-(dimethylsulfamoyl)-1-(4-fluorophenyl)-4-[4-(morpholin-4-yl)piperidin-1-yl]-3-(propan-2-yl)-1H-pyrazolo[3,4-b]pyridine-6-carboxamide] the same measures were 201 nM and 436.4%.
On the same counts, the results for `CCS(=O)(=O)NC(=O)c1cc(N2CCC(N3CCOCC3)CC2)c2c(C(C)C)nn(-c3ccc(F)cc3)c2n1` [Compound 413, N-(ethanesulfonyl)-1-(4-fluorophenyl)-4-[4-(morpholin-4-yl)piperidin-1-yl]-3-(propan-2-yl)-1H-pyrazolo[3,4-b]pyridine-6-carboxamide] are 90.6 nM and 455.9%.
On to `CC(C)c1nn(-c2ccc(F)cc2)c2nc(C(=O)NS(=O)(=O)C3CC3)cc(N3CCC(N4CCOCC4)CC3)c12` [Compound 414, N-(cyclopropanesulfonyl)-1-(4-fluorophenyl)-4-[4-(morpholin-4-yl)piperidin-1-yl]-3-(propan-2-yl)-1H-pyrazolo[3,4-b]pyridine-6-carboxamide], for which the EC50 stood at 159 nM. For the same molecule, under setting [1], the “% Activation” value was found to be 508.3%.
Take `CCS(=O)(=O)NC(=O)c1cc(N2CCC(N3CCCCC3)CC2)c2c(C3CCC3)nn(-c3ccccc3)c2n1` [Compound 427, 4-([1,4′-bipiperidin]-1′-yl)-3-cyclobutyl-N-(ethanesulfonyl)-1-phenyl-1H-pyrazolo[3,4-b]pyridine-6-carboxamide]: the EC50 came out at 162 nM. In addition, the “% Activation” value under setting [1] turned out to be 419.5%.
As to `O=C(NS(=O)(=O)C1CC1)c1cc(N2CCC(N3CCCCC3)CC2)c2c(C3CCC3)nn(-c3ccccc3)c2n1` [Compound 428, 4-([1,4′-bipiperidin]-1′-yl)-3-cyclobutyl-N-(cyclopropanesulfonyl)-1-phenyl-1H-pyrazolo[3,4-b]pyridine-6-carboxamide], the EC50 came out at 77.3 nM. Besides, the “% Activation” value under setting [1] was determined as 434.7%.
Regarding `CC(C)Oc1nn(C2CCCCC2)c2nc(C(=O)NS(=O)(=O)N(C)C)cc(-c3ccc(CN4CCCCC4)cc3)c12` [Compound 443, 1-cyclohexyl-N-(dimethylsulfamoyl)-4-{4-[(piperidin-1-yl)methyl]phenyl}-3-[(propan-2-yl)oxy]-1H-pyrazolo[3,4-b]pyridine-6-carboxamide], the “% Activation” value under setting [1] stood at 332.5%. Under setting [2], the EC50 is 184 nM.
On the same counts, the results for `CCS(=O)(=O)NC(=O)c1cc(N2CCC(C(C)N3CCOCC3)CC2)c2c(C3CCC3)nn(-c3ccc(F)cc3)c2n1` (centres unmarked) [Compound 446, 3-cyclobutyl-N-(ethanesulfonyl)-1-(4-fluorophenyl)-4-{4-[1-(morpholin-4-yl)ethyl]piperidin-1-yl}-1H-pyrazolo[3,4-b]pyridine-6-carboxamide] are 669.9% and 77.4 nM.
